For 28 compounds, IC50 results are on record in patent publication US10844013B2, “Phenyl amino piperidine mTORC inhibitors and uses thereof” (Navitor Pharmaceuticals, Inc., priority 2016, dated 2020).

Assay [1] concerns pS6K1 (p-p70 S6 Kinase (Thr389)) in MCF-7 cells. The experiment in a line: AlphaLISA Ultra pS6K1 assay. The format is cell-based. The conditions noted are these: 2 hours compound incubation. The gist of the method: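 MCF-7 cells seeded 20–24 h, medium refreshed 2 h, then treated 2 h with compound (0.5% DMSO final). Lysates probed for Thr389-phosphorylated p70 S6K by AlphaLISA Ultra, 2 h acceptor then 2 h donor bead incubation, read on a multimode reader.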
In general terms: Alpha assays give light when donor and acceptor beads are brought close together.

Assay [2] deals with pAKT (p-Akt 1/2/3 (Ser473)) in MCF-7 cells. Kind of assay: AlphaLISA Ultra pAKT assay. It counts as cell-based. The gist of the method: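 MCF-7 cells seeded 20-24 h, medium refreshed for 2 h, then treated with compounds for 2 h at 0.5% final DMSO. Lysates frozen at −80 °C, then pAKT detected by AlphaLISA with acceptor and donor beads, 2 h each.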
[3] abbreviates: Homo sapiens, MCF7, 2 hours compound incubation.

Where two headings read alike, the source gives them in different places.

The IC50 is the point on the concentration scale where inhibition reaches its midpoint.

As for `Cc1cc(C)c(C(=O)N2CCN(c3cccnn3)[C@H](CO)C2)c(C)c1NC1CCN(c2ccccn2)CC1` [I-157, [(2S)-1-(pyridazin-3-yl)-4-(2,4,6-trimethyl-3-{[1-(pyridin-2-yl)piperidin-4-yl]amino}benzoyl)piperazin-2-yl]MeOH], the IC50 is 10 to 1000 nM in assay [1] (Homo sapiens, MCF7, 2 h) and above 10000 nM in assay [2] (setting [3]).
For `Cc1cc(C)c(C(=O)N2CCN(c3ccccn3)[C@@H](CO)C2)cc1NC1CCN(c2ccccc2C#N)CC1` [I-30], in that order: 10 to 1000 nM and above 10000 nM.
For `Cc1cc(C)c(C(=O)N2CCN(c3cccc(F)c3[S@@](C)(=N)=O)C[C@@H]2C)c(C)c1NC1CCN(c2ccccc2C#N)CC1` [I-189, 2-(4-(3-((S)-4-(3-fluoro-2-((S)-S-methylsulfonimidoyl)phenyl)-2-methylpiperazine-1-carbonyl)-2,4,6-trimethylphenylamino)piperidin-1-yl)benzonitrile], in that order: 10 to 1000 nM and above 10000 nM.
For `Cc1cc(C)c(C(=O)N2CCN(c3ccccc3)C(CO)C2)cc1NC1CCN(c2ccccc2C#N)CC1` (centres unmarked) [I-63, 2-[4-({5-[3-(Hydroxymethyl)-4-phenylpiperazine-1-carbonyl]-2,4-dimethylphenyl}amino)piperidin-1-yl]benzonitrile], the half-inhibitory concentration (IC50) in assay [1] (Homo sapiens, MCF7, 2 h) is 10 to 1000 nM; in assay [2] (setting [3]), above 10000 nM.
In the case of `Cc1cc(C)c(C(=O)N2CCN(c3ncccc3S(N)(=O)=O)C[C@@H]2C)c(C)c1NC1CCN(c2ccc(F)cc2C#N)CC1` [I-193, (S)-2-(4-(3-(1-(2-cyano-4-fluorophenyl)piperidin-4-ylamino)-2,4,6-trimethylbenzoyl)-3-methylpiperazin-1-yl)pyridine-3-sulfonamide], the IC50 is 1000 to 3000 nM in assay [1] (Homo sapiens, MCF7, 2 h) and above 10000 nM in assay [2] (setting [3]).
Take `Cc1cc(C)c(C(=O)N2CCN(c3ccccc3S(N)(=O)=O)CC2)nc1NC1CCN(c2ccccc2C#N)CC1` [I-66, 2-(4-(6-(1-(2-Cyanophenyl)piperidin-4-ylamino)-3,5-dimethylpicolinoyl)piperazin-1-yl)benzenesulfonamide]: the 50% inhibitory concentration (IC50) was 10 to 1000 nM in assay [1] (Homo sapiens, MCF7, 2 h) and above 10000 nM in assay [2] (setting [3]).
The matching figures for `Cc1cc(C)c(C(=O)N2CCN(C(=O)OC(C)(C)C)[C@H](CO)C2)cc1NC1CCN(c2ccccc2C#N)CC1` [I-9, (S)-tert-butyl 4-(5-(1-(2-cyanophenyl)piperidin-4-ylamino)-2,4-dimethylbenzoyl)-2-(hydroxymethyl)piperazine-1-carboxylate]: 1000 to 3000 nM and above 10000 nM.
The matching figures for `Cc1cc(C)c(C(=O)N2CCN(c3ccccc3S(N)(=O)=O)CC2)cc1N[C@H]1CCN(c2ccccc2C#N)C[C@H]1C` [I-169, 2-(4-(5-(((3R,4S)-1-(2-cyanophenyl)-3-methylpiperidin-4-yl)amino)-2,4-dimethylbenzoyl)piperazin-1-yl)benzenesulfonamide]: 1000 to 3000 nM and above 10000 nM.
For `Cc1cc(C)c(C(=O)N2CCN(c3ccccc3)[C@H](C)C2)cc1NC1CCN(c2ccccc2C#N)CC1` [I-47, (R)-2-(4-(2,4-Dimethyl-5-(3-methyl-4-phenylpiperazine-1-carbonyl)phenylamino)piperidin-1-yl)benzonitrile], in that order: 1000 to 3000 nM and above 10000 nM.
`Cc1cc(C)c(C(=O)N2CCN(c3ccccc3)CC2)cc1NC1CCN(c2ccccc2C#N)CC1` [I-57]: the IC50 was 1000 to 3000 nM in assay [1] (Homo sapiens, MCF7, 2 h) and above 10000 nM in assay [2] (setting [3]).
The matching figures for `Cc1cc(C)c(C(=O)N2CCN(c3ccc(F)cn3)[C@H](CO)C2)c(C)c1NC1CCN(c2ncccn2)CC1` [I-151, [(2S)-1-(5-Fluoropyridin-2-yl)-4-(2,4,6-trimethyl-3-{[1-(pyrimidin-2-yl)piperidin-4-yl]amino}benzoyl)piperazin-2-yl]methanol]: 10 to 1000 nM and above 10000 nM.
For the compound `Cc1cc(C)c(C(=O)N2CCN(c3ccc(F)cc3)C(C(N)=O)C2)c(C)c1NC1CCN(c2cccnn2)CC1` (centres unmarked) [I-162, 1-(4-fluorophenyl)-4-(2,4,6-trimethyl-3-{[1-(pyridazin-3-yl)piperidin-4-yl]amino}benzoyl) piperazine-2-carboxamide], the half-maximal inhibitory concentration (IC50) was 10 to 1000 nM in assay [1] (Homo sapiens, MCF7, 2 h) and above 10000 nM in assay [2] (setting [3]).
The matching figures for `Cc1cc(C)c(C(=O)N2CCN(c3ccccc3)[C@@H](C(C)(C)O)C2)cc1NC1CCN(c2ccccc2C#N)CC1` [I-21]: 3000 to 5000 nM and above 10000 nM.
The matching figures for `COc1cccc(N2CCC(Nc3cc(C(=O)N4CCN(c5ccccc5S(N)(=O)=O)CC4)c(C)cc3C)CC2)c1` [I-5, 2-(4-(5-(1-(3-Methoxyphenyl)piperidin-4-ylamino)-2,4-dimethylbenzoyl)piperazin-1-yl) benzenesulfonamide]: 1000 to 3000 nM and above 10000 nM.
The matching figures for `Cc1nc(C)c(C(=O)N2CCN(c3ccccc3)[C@H](CO)C2)c(C)c1NC1CCN(c2ccc(F)cc2C#N)CC1` [I-154, 5-fluoro-2-[4-({5-[(3S)-3-(hydroxy-methyl)-4-phenyl-piperazine-1-carbonyl]-2,4,6-trimethyl-pyridin-3-yl}amino)piperidin-1-yl] benzonitrile]: 1000 to 3000 nM and above 10000 nM.
For `Cc1nc(C)c(C(=O)N2CCN(c3ccccc3)[C@H](CO)C2)c(C)c1NC1CCN(c2ncccc2Cl)CC1` [I-165, [(2S)-4-(5-{[1-(3-chloropyridin-2-yl)piperidin-4-yl]amino}-2,4,6-trimethyl-pyridine-3-carbonyl)-1-phenyl-piperazin-2-yl]MeOH], the concentration for half-maximal inhibition (IC50) in assay [1] (read-out: pS6K1 in MCF7: IC50) was 10 to 1000 nM; in assay [2] (2 hours compound incubation, read-out: pAKT in MCF7: IC50) it was above 10000 nM.
With `Cc1ccc(C(=O)N2CCN(c3ccccc3S(N)(=O)=O)CC2)cc1NC1CCN(c2ccccc2C#N)CC1` [I-11], the IC50 in assay [1] (Homo sapiens, MCF7, 2 h) was 3000 to 5000 nM; in assay [2] (setting [3]), above 10000 nM.
For `Cc1cc(C)c(C(=O)N2CCN(c3cc(F)ccn3)[C@@H](CO)C2)cc1NC1CCN(c2ccccc2C#N)CC1` [I-99, (R)-2-(4-(5-(4-(4-Fluoropyridin-2-yl)-3-(hydroxymethyl)piperazine-1-carbonyl)-2,4-dimethylphenylamino)piperidin-1-yl)benzonitrile], in that order: 1000 to 3000 nM and above 10000 nM.
The matching figures for `Cc1nc(C)c(C(=O)N2CCN(c3ccccc3)[C@H](CO)C2)c(C)c1NC1CCN(c2c(F)cccc2C#N)CC1` [I-153, 3-fluoro-2-[4-({5-[(3S)-3-(hydroxy-methyl)-4-phenyl-piperazine-1-carbonyl]-2,4,6-trimethyl-pyridin-3-yl}amino)piperidin-1-yl] benzonitrile]: 10 to 1000 nM and above 10000 nM.
Regarding `Cc1cc(C)c(C(=O)N2CCN(c3ccccc3C#N)CC2)cc1NC1CCN(c2ccccc2Cl)CC1` [I-37, 2-(4-(5-(1-(2-Chlorophenyl)piperidin-4-ylamino)-2,4-dimethylbenzoyl)piperazin-1-yl)benzonitrile], the IC50 was 1000 to 3000 nM in assay [1] (Homo sapiens, MCF7, 2 h) and above 10000 nM in assay [2] (setting [3]).
On to `CNC(=O)c1cccnc1N1CCN(C(=O)c2cc(NC3CCN(c4ccccc4C#N)CC3)c(C)cc2C)C[C@H]1C` [I-123, (R)-2-(4-(5-(1-(2-Cyanophenyl)piperidin-4-ylamino)-2,4-dimethylbenzoyl)-2-methylpiperazin-1-yl)-N-methylnicotinamide], for which the IC50 is 1000 to 3000 nM in assay [1] (Homo sapiens, MCF7, 2 h) and above 10000 nM in assay [2] (setting [3]).
The matching figures for `Cc1cc(C)c(C(=O)N2CCN(c3ccccn3)[C@H](CO)C2)c(C)c1NC1CCN(c2cnccn2)CC1` [I-149, [(2S)-1-(pyridin-2-yl)-4-(2,4,6-trimethyl-3-{[1-(pyrazin-2-yl)piperidin-4-yl]amino}benzoyl)piperazin-2-yl]MeOH]: 10 to 1000 nM and above 10000 nM.
For `Cc1cc(C)c(C(=O)N2CCN(c3ncccc3F)[C@@H](CO)C2)cc1NC1CCN(c2ccccc2C#N)CC1` [I-115, (R)-2-(4-(5-(4-(3-Fluoropyridin-2-yl)-3-(hydroxymethyl)piperazine-1-carbonyl)-2,4-dimethylphenylamino)piperidin-1-yl)benzonitrile], in that order: 1000 to 3000 nM and above 10000 nM.
Turning to `Cc1cc(C)c(C(=O)N2CCN(c3ccc(F)cn3)C(=O)C2)cc1NC1CCN(c2ccccc2C#N)CC1` [I-72, 2-[4-({5-[4-(5-Fluoropyridin-2-yl)-3-oxopiperazine-1-carbonyl]-2,4-dimethylphenyl}amino)piperidin-1-yl]benzonitrile], the IC50 was 3000 to 5000 nM in assay [1] (Homo sapiens, MCF7, 2 h) and above 10000 nM in assay [2] (setting [3]).
For `CNC(=O)c1ccccc1N1CCN(C(=O)c2cc(NC3CCN(c4ccccc4C#N)CC3)c(C)cc2C)C[C@H]1CO` (single isomer, unassigned) [I-134], in that order: 1000 to 3000 nM and above 10000 nM.
The matching figures for `Cc1cc(C)c(C(=O)N2CCN(c3cccc(F)c3S(N)(=O)=O)CC2)cc1NC1CCN(c2c(F)cc(F)cc2C#N)CC1` [I-187, 2-(4-(5-(1-(2-cyano-4,6-difluorophenyl)piperidin-4-ylamino)-2,4-dimethylbenzoyl)piperazin-1-yl)-6-fluorobenzenesulfonamide]: above 10000 nM and above 10000 nM.
The matching figures for `CNC(=O)c1cc(F)ccc1N1CCN(C(=O)c2cc(NC3CCN(c4ccccc4C#N)CC3)c(C)cc2C)CC1` [I-65]: 10 to 1000 nM and above 10000 nM.
Turning to `COc1cc(C)c(C(=O)N2CCN(c3ccccc3S(N)(=O)=O)CC2)cc1NC1CCN(c2ccccc2C#N)CC1` [I-127, 2-(4-(5-(1-(2-Cyanophenyl)piperidin-4-ylamino)-4-methoxy-2-methylbenzoyl)piperazin-1-yl)benzenesulfonamide], the IC50 in assay [1] (Homo sapiens, MCF7, 2 h) was 3000 to 5000 nM; in assay [2] (setting [3]), above 10000 nM.
